{"source": "patent US20040142048A1", "about": "“Compositions based on proanthocyanadin-catechin synergies for prevention and treatment of cancer” (priority 2004, published 2004)", "key": {"[1]": {"system": "cancer cells", "experiment": "Effect of EGCg on cancer cell growth and apoptosis", "type": "cell-based"}, "[2]": {"experiment": "Clearance of EGCg from the blood", "settings": "in vivo"}}}
{"substance": "(−)-epigallocatechin gallate [EGCg]", "values": [{"measurement": "time cancer cells must be inhibited from growing before EGCg-induced apoptosis occurs", "setting": "[1]", "value": "48 to 72", "unit": "h"}, {"measurement": "growth of cancer cells challenged with EGCg", "setting": "[1]; 10^−7 M EGCg every two hours during the day", "value": "growth is inhibited"}, {"measurement": "reversibility of the effect on cancer cell growth", "setting": "[1]; EGCg removed, cells resume normal rates of growth", "value": "reversible"}, {"measurement": "clearance from the blood", "setting": "[2]", "value": "rapidly cleared from the blood and metabolized"}]}
